Tests used:
IFN-γ [1] = assay: IFN-γ mRNA expression in Jurkat cells by qRT-PCR, normalized with GAPDH; assay type: cell-based, human
Procedure: FIG. 1. Interferon gamma (IFN-γ) and interleukin (IL)-2 expression in human Jurkat cells following exposure to TRIP in vitro. Jurkat cells (2×10^6) were treated with different concentrations of TRIP as indicated for 24 hours. (A) IFN-γ and (B) IL-2 mRNA expression levels were detected by quantitative real-time polymerase chain reaction (qRT-PCR) and normalized with the expression of GAPDH. *p<0.05, **p<0.01, ***p<0.001.
FIG. 2. Effect of tamoxifen on TRIP-induced expression of IFN-γ in vitro. Jurkat cells (2×10^6) were treated with TRIP (2.5 μM) and/or tamoxifen (2.5 μM) for 24 hours. The expression levels of IFN-γ were analyzed by qRT-PCR and normalized with GAPDH. **p<0.01, ***p<0.005.
FIG. 3. Effects of TRIP alone and in combination with trifluoperazine (TFP) or LY294002 (LY) on IFN-γ and IL-2 in human Jurkat cells in vitro. Jurkat cells (2×10^6) were pretreated with different concentrations of (A, B) TFP (0, 0.1, 1.0, 5.0, and 10.0 μM) and (C, D) LY294002 (0, 1, 5, 10, and 25 μM) for 1 hour, then incubated with medium containing 2.5 μM of TRIP for 24 hours. (A, C) IFN-γ and (B, D) IL-2 mRNA expression levels were detected by qRT-PCR and normalized with the expression of GAPDH. *p<0.05, **p<0.01, ***p<0.001.
FIG. 4. Effects of calmodulin, PI3K and MAPK inhibition on TRIP-induced expression of IFN-γ and IL-2 in human Jurkat cells in vitro. Jurkat cells (2×10^6) were pretreated with PD98059 (50 μM), TFP (10 μM) and LY294002 (25 μM) for 1 hour, then incubated with medium containing 2.5 μM of TRIP for 24 hours. (A) IFN-γ and (B) IL-2 mRNA expression levels were detected by qRT-PCR and normalized with the expression of GAPDH. **p<0.01, ***p<0.001, ****p<0.0001.
The potential immune regulating effects of TRIP and the possible mechanism(s) involved were determined with in vitro experiments examining the expression of T cell activating cytokines in human acute T cell leukemia Jurkat cells. The expression of IFN-γ and IL-2 RNA following exposure to increasing concentrations of TRIP (i.e., ospemifene) were first examined, followed by the effects of combining tamoxifen with TRIP on the expression of these cytokines. Different inhibitors of key T cell activation pathways—trifluoperazine (TFP), an inhibitor of calmodulin, LY294002, an inhibitor of PI3K, and PD98059, a MAPK inhibitor—in combination with TRIP were assessed for their effects on TRIP-induced expression of IFN-γ and IL-2 in Jurkat cells.
Jurkat cells (2.0×10^6) were treated with different concentrations of TRIP as indicated on the x-axis for 24 hours. (A) IFN-γ and (B) IL-2 mRNA expression levels were detected by quantitative real-time polymerase chain reaction (qRT-PCR) and normalized with the expression of GAPDH. *p<0.05, **p<0.01, ***p<0.001.
The expression levels of IFN-γ were analyzed by qRT-PCR and normalized with GAPDH. **p<0.01, ***p<0.001.
T cell activation requires multiple signals including PI3K, MAPK and calcium signaling pathways, and in order to identify the potential mechanism through which TRIP affects immune activation, Jurkat cells (2.0×10^6) were pretreated with different concentrations of TFP (0, 0.1, 1.0, 5.0 and 10.0 μM) (A, B) or LY294002 (0, 1, 5, 10 and 25 μM) (C, D) for one hour, then incubated with medium containing 2.5 μM TRIP for 24 hours. IFN-γ and IL-2 expression levels were detected by qRT-PCR and normalized with the expression of GAPDH. *p<0.05, **p<0.01, ***p<0.001.
Jurkat cells (2×10^6) were pretreated with PD98059 (50 μM), TFP (10 μM) or LY294002 (25 μM) for one hour, then incubated with medium containing 2.5 μM TRIP for 24 hours. (A) IFN-γ and (B) IL-2 mRNA expression levels were detected by qRT-PCR and normalized with expression of GAPDH. **p<0.01, ***p<0.001, ****p<0.0001.
The effects on T cell activation of different functional group substitutions on the TRIP chemical structure (Formula Ia) were examined by measuring the expression of IFN-γ and IL-2 RNA in human acute T cell leukemia Jurkat cells in vitro. […]

[2] = test system: cytotoxic T lymphocyte activity; conditions: TRIP 50 mg/kg daily oral 16 days + PV
Procedure: Effects of short-course TRIP dosing regimens on cytotoxic T lymphocyte activity. Average target cell apoptosis percentages (+SEM) were assessed in control (n=10), one cycle of PV (n=11), short-course TRIP (16 days; 10 mg/kg, TRIP 10; 50 mg/kg, TRIP 50; n=11), and PV+TRIP combination (n=11) treatment groups. PV=peptide vaccine; *p<0.05.
A total of 65 male human MUC1.Tg C57BL/6 mice underwent urethane lung tumor induction as described (Wurz G T. et al., J. Transl. Med., 11:64 (2013)) starting at approximately five weeks of age. In Week 20, six weeks after the last dose of urethane, mice were randomized into six treatment groups of approximately equal average weight: Control (n=10); TRIP (i.e., ospemifene) 10 mg/kg (n=11); TRIP 50 mg/kg (n=11); tecemotide (L-BLP25) peptide vaccine (PV) alone (n=11); TRIP 10 mg/kg+PV (n=11); and TRIP 50 mg/kg+PV (n=11). Starting in Week 20, all mice in the PV treatment groups were administered eight weekly 10 μg doses by subcutaneous (s.c.) injection (100 μl) at rotating sites using a 25-gauge needle. […]
Average target cell apoptosis percentages (+SEM) were assessed in control (n=10), one cycle of PV (n=11), short-course TRIP (16 days; 10 mg/kg, TRIP 10; 50 mg/kg, TRIP 50; n=11), and PV+TRIP combination (n=11) treatment groups. […]

IFN-γ [3] = conditions: chronic daily TRIP 50 mg/kg + two cycles of PV
Procedure: (§1) FIG. 15. […] Antigen-specific IFN-γ immune response was assessed by ELISpot 48 hours following two cycles of peptide vaccine (PV).
(§2) A total of 55 mixed-sex hMUC1.Tg C57BL/6 mice, starting at approximately five weeks of age, were treated with urethane as described above. Approximately six weeks after the last dose of urethane, mice were randomized into four treatment groups of approximately equal average weight: Control (n=22); TRIP (i.e., ospemifene) 50 mg/kg (n=16); tecemotide (L-BLP25) peptide vaccine (PV) (n=6); and TRIP+PV (n=11). At this time (Week 21), mice assigned to the […] began treatment with the first of two cycles consisting of eight weekly 10 μg doses each, with approximately four weeks between cycles. Cycle 1 was administered during Weeks 21-28, and Cycle 2 from Weeks 32-39. The PV was prepared and administered as described above. Mice in the TRIP groups began daily oral treatment in Week 31, which continued through the end of the study (approximately eight weeks of dosing). TRIP was prepared and administered as described above. Mice not assigned to TRIP treatment received daily oral doses of diluent. At the conclusion of the study, 48 h after the final dose of PV and 24 h after the last dose of TRIP, all mice were euthanized for the collection of serum and spleens, which were processed as described above for multiplex serum cytokine, Treg, and CTL analyses.

[4] = test system: cytotoxic T lymphocyte activity
Procedure: as §1, §2

[5] = chronic daily TRIP 50 mg/kg + PV

OCCOc1ccc(/C(=C(/CCCl)c2ccccc2)c2ccccc2)cc1 [TRIP, Z-2-[4-(4-chloro-1,2-diphenyl-but-1-enyl)-phenoxy]ethanol]
expression of IFN-γ compared to control, TRIP+tamoxifen (IFN-γ [1]; Jurkat cells, TRIP 2.5 μM plus tamoxifen 2.5 μM, 24 hours (FIG. 2)): significantly increased
IFN-γ RNA expression compared to control (IFN-γ [1]; Jurkat cells, different concentrations of TRIP, 24 hours, dose-dependent (FIG. 1A)): significantly induced
expression of IFN-γ compared to control (IFN-γ [1]; Jurkat cells, single agent 2.5 μM, 24 hours (FIG. 2)): significantly increased
IFN-γ Expression (IFN-γ [1]; mRNA in Jurkat cells in vitro, relative to control sample without TRIP compound): +++ (strong increase)
induction of CTL activity, PV with short-course TRIP compared to TRIP or PV treatments alone [2]: significantly boosted
PV-induced, antigen-specific immune response (IFN-γ ELISpot) (IFN-γ [3]): significantly decreased
CTL activity of the combination over that of PV alone [4, 5]: increased CTL activity
additive CTL activity in combination with PV [4, 5]: no additive CTL activity
CTL activity compared to control ([4]; chronic daily TRIP 50 mg/kg alone): slightly, but not significantly increased

— patent US10154970B2, “Methods for immunomodulation of cancer and infectious disease therapy” (The Regents of the University of California, priority 2014, dated 2018)
